Reference: patent US12692253B2, “Antimicrobial compounds and methods” (Curza Global, LLC, priority 2019, dated 2026)
Like-named read-outs stand apart in the source and are kept apart here.

Key:
[1] = tested on: E. coli S30 extract (bacterial protein synthesis); assay: E. coli S30 extract coupled transcription-translation luciferase assay (inhibition of bacterial protein synthesis); format: biochemical; settings: read-out: S30 IC50 (μM/% inhib.)
Method in brief: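 Luciferase luminescence quantified inhibition of protein synthesis relative to water controls, with no-DNA reactions giving background. Compounds in 2-fold serial dilution (8 levels) were incubated 1 hour at 37 °C with E. coli S30 extract, amino acids and pBESTluc plasmid, then chilled to stop.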

[2] = target: Rabbit Reticulocyte Lysate (eukaryotic protein synthesis); assay: Rabbit reticulocyte lysate luciferase assay (inhibition of eukaryotic protein synthesis); format: biochemical; settings: read-out: Rabbit reticulocyte IC50 (μM/% inhib.)
Method in brief: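 Percent inhibition calculated against water-only controls from luminescence; background set by lysate lacking RNA. Compounds, 8-point 2-fold titration, incubated 90 minutes at 30° C with nuclease-treated rabbit reticulocyte lysate programmed with luciferase control RNA plus complete amino acids.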

[3] = tested on: S. aureus (Sa); assay: Broth microdilution minimum inhibitory concentration (MIC), CLSI; format: cell-based; settings: for MIC: Staphylococcus aureus, read-out: Sa + bicarb MIC
Method in brief: (§1)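 Bacteria grown at 35±2 °C to 0.5 McFarland turbidity were added at 5×10^4 CFU/well to triplicate two-fold compound series (8 dilutions). Media were cation-adjusted Mueller-Hinton broth alone or with sodium bicarbonate (6.25 or 25 mM final) or heat-inactivated human serum (0–50%), per modified CLSI method.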

[4] = tested on: P. aeruginosa (Pa); assay: as above; format: cell-based; settings: for MIC: Pseudomonas aeruginosa, read-out: Pa MIC + bicarb
Method in brief: as §1

[5] = tested on: E. coli (Ec); assay: as above; format: cell-based; settings: for MIC: Escherichia coli, read-out: E. coli + bicarb MIC
Method in brief: as §1

[6] = tested on: A. baumannn (Ab); assay: as above; format: cell-based; settings: for MIC: read-out: Ab + bicarb MIC
Method in brief: as §1

[7] = tested on: E. faecalis (Ef); assay: as above; format: cell-based; settings: for MIC: Enterococcus faecalis, read-out: Ef + bicarb MIC
Method in brief: as §1

[8] = class by IC50 or % inhibition @ 1 μM
[9] = growth medium supplemented with sodium bicarbonate
[10] = growth medium with sodium bicarbonate
[11] = A. baumannn, growth medium with sodium bicarbonate
[12] = A. baumannii, growth medium supplemented with sodium bicarbonate

Row | Structure (SMILES) | IC50 [1, 8] [µM] | IC50 [2, 8] [µM] | MIC [3, 9] [µg/mL] | MIC [4, 9] [µg/mL] | MIC [5, 9] [µg/mL] | MIC ([6]; Acinetobacter baumannii) [µg/mL] | MIC [7, 9] [µg/mL] | IC50 ([1]; % inhibition @ 1 μM) [µM] | IC50 ([2]; % inhibition @ 1 μM) [µM] | MIC [3, 10] [µg/mL] | MIC [4, 10] [µg/mL] | MIC [5, 10] [µg/mL] | MIC [6, 11] [µg/mL] | MIC [7, 10] [µg/mL] | further results
1 | CCCC(Cc1ccc(-n2ccc(NC(=O)N3CCN(C(=O)C(C)(C)N)CC3)nc2=O)cc1F)N1C[C@@H]2[C@@H](CN)[C@@H]2C1 (some centres unmarked) [Compound 153] | < 0.5 | ≥ 1 | < 8 | 8 to 32 | < 8 | < 8 | < 8 | – | – | – | – | – | – | – | –
2 | CC(Cc1ccc(-n2ccc(NC(=O)N3CCN(C(=O)[C@H]4C[C@@H](N)C4)CC3)nc2=O)cc1)N1C[C@@H]2[C@@H](CN)[C@@H]2C1 (some centres unmarked) [Compound 232] | – | – | – | – | – | – | – | ≥ 1 | ≥ 1 | < 8 | > 32 | < 8 | > 32 | > 32 | –
3 | CC(Cc1ccc(-n2ccc(NC(=O)N3CCN(C(=O)C(C)(C)CN)CC3)nc2=O)cc1)N1C[C@@H]2[C@@H](CN)[C@@H]2C1 (some centres unmarked) [Compound 233] | – | – | – | – | – | – | – | ≥ 1 | ≥ 1 | < 8 | > 32 | < 8 | > 32 | 8 to 32 | –
4 | CC(Cc1ccc(-n2ccc(NC(=O)N3CCN(C(=O)[C@H](C)N)CC3)nc2=O)cc1)N1C[C@@H]2[C@@H](CN)[C@@H]2C1 (some centres unmarked) [Compound 222] | – | – | – | – | – | – | – | 0.5 to 1 | ≥ 1 | < 8 | > 32 | < 8 | > 32 | 8 to 32 | –
5 | CC(Cc1ccc(-n2ccc(NC(=O)N3CCN(C(=O)C(C)(C)N)C[C@H]3C)nc2=O)cc1)N1C[C@@H]2[C@@H](CN)[C@@H]2C1 (some centres unmarked) [Compound 124] | < 0.5 | ≥ 1 | < 8 | 8 to 32 | < 8 | > 32 | < 8 | – | – | – | – | – | – | – | –
6 | CC(C)(N)C(=O)N1CCN(C(=O)Nc2ccn(-c3ccc(CN4C[C@@H]5[C@@H](CN)[C@@H]5C4)cc3)c(=O)n2)CC1 [Compound 68] | < 0.5 | ≥ 1 | < 8 | > 32 | < 8 | > 32 | > 32 | – | – | – | – | – | – | – | –
7 | NCC1CN(C(=O)Nc2ccn(-c3ccc(CN4C[C@@H]5[C@@H](N)[C@@H]5C4)cc3)c(=O)n2)C1 [Compound 254] | – | – | – | – | – | – | – | 0.5 to 1 | ≥ 1 | > 32 | > 32 | 8 to 32 | > 32 | > 32 | –
8 | CC(C)(N)C(=O)N1CCN(C(=O)Nc2ccn(-c3ccc(CNC[C@@H]4[C@H]5CNC[C@@H]45)cc3)c(=O)n2)CC1 [Compound 190] | – | – | – | – | – | – | – | < 0.5 | ≥ 1 | < 8 | > 32 | < 8 | > 32 | 8 to 32 | –
9 | CC(Cc1ccc(-n2ccc(NC(=O)N3CCN(C(=O)C(C)(C)N)CC3)nc2=O)cc1)N1CC2(CCC2N)C1 (centres unmarked) [Compound 111] | ≥ 1 | ≥ 1 | < 8 | > 32 | < 8 | > 32 | 8 to 32 | – | – | – | – | – | – | – | –
10 | CC(C)(N)C(=O)N1CCN(C(=O)Nc2ccn(-c3ccc(CN4C[C@@H]5C(C(C)(C)N)[C@@H]5C4)cc3)c(=O)n2)CC1 (some centres unmarked) [Compound 206] | – | – | – | – | – | – | – | < 0.5 | ≥ 1 | < 8 | > 32 | < 8 | > 32 | 8 to 32 | –
11 | CC(C)(N)C(=O)N1CCN(C(=O)Nc2ccn(-c3ccc(CCN4CC5CC5(CN)C4)c(C(F)(F)F)c3)c(=O)n2)CC1 (centres unmarked) [Compound 131] | < 0.5 | ≥ 1 | < 8 | > 32 | < 8 | 8 to 32 | < 8 | – | – | – | – | – | – | – | –
12 | CC(CN1C[C@@H]2[C@@H](CN)[C@@H]2C1)c1ccc(-n2ccc(NC(=O)N3CCN(C(=O)C(C)(C)N)CC3)nc2=O)cc1 (some centres unmarked) [Compound 121] | 0.5 to 1 | ≥ 1 | < 8 | 8 to 32 | < 8 | > 32 | 8 to 32 | – | – | – | – | – | – | – | –
13 | CCN(Cc1ccc(-n2ccc(NC(=O)N3CCN(C(=O)C(C)(C)N)CC3)nc2=O)cc1)C12CCC(N)(CC1)CC2 [Compound 172] | – | – | – | – | – | – | – | < 0.5 | ≥ 1 | < 8 | > 32 | < 8 | 8 to 32 | < 8 | –
14 | CC(Cc1ccc(-n2ccc(NC(=O)N3CCN(C(=O)C(C)(C)N)CC3)nc2=O)cc1C(F)(F)F)N1C[C@@H]2[C@@H](CN)[C@@H]2C1 (some centres unmarked) [Compound 208] | – | – | – | – | – | – | – | < 0.5 | ≥ 1 | < 8 | > 32 | < 8 | 8 to 32 | < 8 | –
15 | CC(C)(N)C(=O)N1CCN(C(=O)Nc2ccn(-c3ccc(CN4CC[C@H]5[C@H](N)[C@H]5C4)cc3)c(=O)n2)CC1 [Compound 30] | < 0.5 | ≥ 1 | < 8 | 8 to 32 | < 8 | 8 to 32 | < 8 | – | – | – | – | – | – | – | –
16 | CC(C)(N)C(=O)N1CCN(C(=O)Nc2ccn(-c3ccc(CN4CCC5(N)CC5C4)cc3)c(=O)n2)CC1 (centres unmarked) [Compound 20] | ≥ 1 | ≥ 1 | – | – | – | – | – | – | – | – | – | – | – | – | Sa + bicarb MIC [3, 9]: +++ (An MIC value (μg/mL) that is less than 8 μg/mL); Pa MIC + bicarb [4, 9]: + (An MIC (μg/mL) value that is 32 μg/mL or greater); E. coli + bicarb MIC [5, 9]: +++ (An MIC value (μg/mL) that is less than 8 μg/mL); Ab + bicarb MIC [6, 12]: + (An MIC (μg/mL) value that is 32 μg/mL or greater); Ef + bicarb MIC [7, 9]: ++ (An MIC value (μg/mL) that is 8 μg/mL or greater and less than 32 μg/mL)
17 | CC(Cc1ccc(-n2ccc(NC(=O)N3CCN(C(=O)C(C)(C)N)CC3)nc2=O)cc1)NC1CC2(CC(N)C2)C1 (centres unmarked) [Compound 176] | – | – | – | – | – | – | – | ≥ 1 | ≥ 1 | < 8 | > 32 | < 8 | > 32 | 8 to 32 | –
18 | CC(Cc1ccc(-n2ccc(NC(=O)N3CCN(C(=O)C(C)(C)N)CC3)nc2=O)cc1)N1CC2CCC(N)CC2C1 (centres unmarked) [Compound 243] | – | – | – | – | – | – | – | 0.5 to 1 | ≥ 1 | – | – | – | – | – | Sa + bicarb MIC [3, 10]: ++ (An MIC value (μg/mL) that is 8 μg/mL or greater and less than 32 μg/mL); Pa MIC + bicarb [4, 10]: + (An MIC (μg/mL) value that is 32 μg/mL or greater); E. coli + bicarb MIC [5, 10]: +++ (An MIC value (μg/mL) that is less than 8 μg/mL); Ab + bicarb MIC [6, 11]: + (An MIC (μg/mL) value that is 32 μg/mL or greater); Ef + bicarb MIC [7, 10]: + (An MIC (μg/mL) value that is 32 μg/mL or greater)
19 | CC(C)(N)C(=O)N1CCN(C(=O)Nc2ccn(-c3ccc(CCN4C5CCC4CC(N)C5)cc3)c(=O)n2)CC1 (centres unmarked) [Compound 108] | ≥ 1 | ≥ 1 | – | – | – | – | – | – | – | – | – | – | – | – | Sa + bicarb MIC [3, 9]: +++ (An MIC value (μg/mL) that is less than 8 μg/mL); Pa MIC + bicarb [4, 9]: + (An MIC (μg/mL) value that is 32 μg/mL or greater); E. coli + bicarb MIC [5, 9]: +++ (An MIC value (μg/mL) that is less than 8 μg/mL); Ab + bicarb MIC [6, 12]: + (An MIC (μg/mL) value that is 32 μg/mL or greater); Ef + bicarb MIC [7, 9]: + (An MIC (μg/mL) value that is 32 μg/mL or greater)
20 | Cc1cc(-n2ccc(NC(=O)N3CCN(C(=O)[C@@](C)(N)CO)CC3)nc2=O)ccc1CCN1C[C@@H]2[C@@H](CN)[C@@H]2C1 [Compound 129] | < 0.5 | ≥ 1 | < 8 | 8 to 32 | < 8 | > 32 | 8 to 32 | – | – | – | – | – | – | – | –
21 | CCC(Cc1ccc(-n2ccc(NC(=O)N3CCN(C(=O)C(C)(C)N)CC3)nc2=O)cc1)N1CC2CCC(N)CC2C1 (centres unmarked) [Compound 244] | – | – | – | – | – | – | – | 0.5 to 1 | ≥ 1 | – | – | – | – | – | Sa + bicarb MIC [3, 10]: +++ (An MIC value (μg/mL) that is less than 8 μg/mL); Pa MIC + bicarb [4, 10]: + (An MIC (μg/mL) value that is 32 μg/mL or greater); E. coli + bicarb MIC [5, 10]: +++ (An MIC value (μg/mL) that is less than 8 μg/mL); Ab + bicarb MIC [6, 11]: + (An MIC (μg/mL) value that is 32 μg/mL or greater); Ef + bicarb MIC [7, 10]: ++ (An MIC value (μg/mL) that is 8 μg/mL or greater and less than 32 μg/mL)
22 | CC(C)(N)C(=O)N1CCN(C(=O)Nc2ccn(-c3ccc(CCN4CCC5CC5(N)C4)c(F)c3)c(=O)n2)CC1 (centres unmarked) [Compound 100] | < 0.5 | ≥ 1 | < 8 | > 32 | < 8 | 8 to 32 | < 8 | – | – | – | – | – | – | – | –
23 | CCC(Cc1ccc(-n2ccc(NC(=O)N3CCN(C(=O)C(C)(C)N)CC3)nc2=O)cc1)N1CC2CCCC(N)C2C1 (centres unmarked) [Compound 219] | – | – | – | – | – | – | – | < 0.5 | ≥ 1 | < 8 | > 32 | < 8 | > 32 | < 8 | –
